The results in this text go back to patent US20250051290A1, “NOVEL COMPOUND FOR IMPROVING SLEEP OR USE THEREOF” (Ajou University Industry-Academic Cooperation Foundation, priority 2021, published 2025).

The target in this test is T1, adenosine A1 receptor (Homo sapiens, UniProt P30542).
T1 construct: expressed in transfected cells; cells use mitochondrial aequorin
T1 sequence (P30542 1-326): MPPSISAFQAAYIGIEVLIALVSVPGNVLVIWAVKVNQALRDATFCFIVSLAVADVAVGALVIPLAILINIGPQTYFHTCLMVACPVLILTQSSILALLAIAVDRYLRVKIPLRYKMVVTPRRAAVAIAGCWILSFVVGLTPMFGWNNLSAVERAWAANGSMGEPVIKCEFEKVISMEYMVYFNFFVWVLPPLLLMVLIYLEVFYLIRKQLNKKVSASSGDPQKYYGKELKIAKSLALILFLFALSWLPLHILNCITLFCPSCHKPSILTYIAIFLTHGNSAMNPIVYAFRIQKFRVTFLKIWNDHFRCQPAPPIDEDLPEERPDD
Briefly: Adenosine A1 receptor agonistic activity, aequorin calcium luminescence in A1-overexpressing cell line. Particulars: for activation at 10 µM: compound concentration 10 μM; for activation at 10 µM / activation at 50 µM: read-out: agonistic effect on A1 receptor, response relative to adenosine as 100%; for activation at 50 µM: compound concentration 50 μM. In kind it is cell-based. The source says: The intracellular endoplasmic reticulum has the function of storing calcium ions and releasing them when necessary. It is responsible for managing and maintaining the overall physiological activities of the human body, such as contracting muscles and promoting hormone secretion by releasing calcium ions. This mechanism has been applied as a universal and accurate method to study the activity of G protein-coupled receptors (GPCRs), and the method of measuring calcium ions, which are the final measurement target, has been developed into various methods including fluorescent substances. The present inventors tried to use chemical luminescence through aequorin to evaluate the agonistic efficacy of the compounds subject to development. To this end, a cell line overexpressing an adenosine receptor (adenosine receptor subtype 1, A1), which targets calcium ions released from the intracellular endoplasmic reticulum, was used, and the concentration of calcium ions released instantaneously was measured using a cell function screening system based on the luminescence phenomenon through mitochondrial aequorin.
Cells into which an A1 receptor gene was inserted through transformation were washed with 10 ml of PBS after 48 hours of culture, and then the cells were isolated and centrifuged at 1,000×g for 5 minutes. The precipitated cells were treated with a basic buffer solution (Dulbecco's Modified Eagle's Medium (DMEM)/HAM's F12 without phenol red, with L-glutamate, 15 mM hydroxyethyl piperazine ethane sulfonic acid (HEPES), pH 7.0, 0.1% bovine serum albumin (BSA)), coelenterazine h was added to a concentration of 2×10^6 cells/ml, and then light was blocked. The cells were allowed to react with coelenterazine h using a rotator at room temperature. After four hours of reaction, the reaction mixture was diluted 10 times with a basic buffer solution to adjust the concentration to 2×10^5 cells/ml and allowed to stand for 60 minutes under the same conditions as before.
To confirm the agonistic activity of the novel compounds of the present invention, the previously prepared cells were plated in a 96-well black plate (Corning 3915) containing adenosine ([…]-4.57 nM) at 50 µl/well (5,000 cells/well), and then the resulting signal value was measured. To confirm the calcium signal changing activity (agonistic activity) of the compounds subject to development, the prepared cells were plated in a 96-well plate containing 50 μl/well of the compound sample at 50 μl/well and allowed to react for 30 minutes. Thereafter, 50 μl/well of adenosine (3 μM) was injected to confirm the reaction. The light emitted due to cell activity was measured and recorded using a Mithras 960 MultiLabel Reader. The measured value (area under the curve (AUC) integrated signal) was expressed in relative light units (RLU). To ensure the accuracy of the experimental data, the experiment was performed at at least two concentrations ([…] and 50 μM) with three samples of the same compound, and EC50 values calculated when necessary were compared and analyzed with the values obtained through at least three experiments.
As a result, the results shown in Table 1 below and FIG. 5 were obtained. Each value was obtained by assuming the response of […] adenosine as 100% and converting the ratio into percentage. The greater the value, the greater the agonistic effect.

pEC50: −log10 of the molar value.

`CCNc1nc(N2CCCC2)c2cc(O)c(O)cc2n1` [AR-027, 2-(Ethylamino)-4-(pyrrolidin-1-yl)quinazoline-6,7-diol]: the activation at 10 µM was found to be 0.2% and the activation at 50 µM was found to be 1.1%.
On to `CN(C)c1nc(NCc2ccc3c(c2)OCO3)nc2ccccc12` [AR-010, N^2-(benzo[d][1,3]dioxol-5-ylmethyl)-N^4,N^4-dimethylquinazoline-2,4-diamine], for which the activation at 10 µM came out at 2.1% and the activation at 50 µM was determined as 240%.
For `CCNc1nc(N2CCCC2)c2ccccc2n1` [AR-014, N-ethyl-4-(pyrrolidin-1-yl)quinazolin-2-amine] the same measures were -0.9% and 25.1%.
The like results for `c1ccc2c(N3CCCC3)nc(N3CCCC3)nc2c1` [AR-021, 2,4-di(pyrrolidin-1-yl)quinazoline] were, in that order, 1.8% and 0.1%.
For `O=C(NCCNc1nc(N2CCCC2)c2ccccc2n1)c1ccc(O)c(O)c1` [AR-024, 3,4-Dihydroxy-N-(2-((4-(pyrrolidin-1-yl)quinazolin-2-yl)amino)ethyl)benzamide] the same measures were -0.7% and 0.1%.
Take `CN(C)c1nc(NC2CC2)nc2ccccc12` [AR-009, N^2-cyclopropyl-N^4,N^4-dimethylquinazoline-2,4-diamine]: the activation at 10 µM is -1.2% and the activation at 50 µM turned out to be 14.6%.
With `c1ccc2c(N3CCCC3)nc(NCc3ccc4c(c3)OCO4)nc2c1` [AR-004, N-(benzo[d][1,3]dioxol-5-ylmethyl)-4-(pyrrolidin-1-yl)quinazolin-2-amine], the activation at 10 µM is -0.7% and the activation at 50 µM was -0.8%.
The like results for `CCNc1nc(N(C)C)c2ccccc2n1` [AR-008, N^2-ethyl-N^4,N^4-dimethylquinazoline-2,4-diamine] were, in that order, 0.4% and 2.6%.
For `CN(C)c1nc(NCc2ccco2)nc2cc(O)c(O)cc12` [AR-026, 4-(Dimethylamino)-2-((furan-2-ylmethyl)amino)quinazoline-6,7-diol] the same measures were -0.6% and 0%.
The like results for `c1coc(CNc2nc(NCc3ccc4c(c3)OCO4)nc3ccccc23)c1` [AR-007, N^2-(benzo[d][1,3]dioxol-5-ylmethyl)-N^4-(furan-2-ylmethyl)quinazoline-2,4-diamine] were, in that order, -1.1% and 12%.
Regarding `c1coc(CNc2nc(NCc3ccco3)c3ccccc3n2)c1` [AR-005, N^2,N^4-bis(furan-2-ylmethyl)quinazoline-2,4-diamine], the activation at 10 µM turned out to be 0.2% and the activation at 50 µM came to 251%.
For `CC(Nc1nc(N2CCCC2)c2ccccc2n1)c1ccccc1` (stereo not drawn) [AR-023, N-(1-phenylethyl)-4-(pyrrolidin-1-yl)quinazolin-2-amine] the same measures were 1.7% and 47.8%.
For `CCNc1nc(NC(C)c2ccccc2)c2ccccc2n1` (stereo not drawn) [AR-011, N^2-ethyl-N^4-(1-phenylethyl)quinazoline-2,4-diamine] the same measures were -0.4% and 42.8%.
The like results for `CC(Nc1nc(NC2CC2)nc2ccccc12)c1ccccc1` (stereo not drawn) [AR-003, N^2-cyclopropyl-N^4-(1-phenylethyl)quinazoline-2,4-diamine] were, in that order, -1.1% and 3.9%.
Consider `CCNc1nc(N2CCCC2)c2cc(OC)c(OC)cc2n1` [AR-020, N-ethyl-6,7-dimethoxy-4-(pyrrolidin-1-yl)quinazolin-2-amine], for which the activation at 10 µM is 0.3% and the activation at 50 µM was -0.7%.
The like results for `c1ccc2c(N3CCCC3)nc(NC3CC3)nc2c1` [AR-016, N-cyclopropyl-4-(pyrrolidin-1-yl)quinazolin-2-amine] were, in that order, 3.7% and 101%.
The like results for `c1coc(CNc2nc(N3CCCC3)c3ccccc3n2)c1` [AR-015, N-(furan-2-ylmethyl)-4-(pyrrolidin-1-yl)quinazolin-2-amine] were, in that order, 28.6% and 219%.
For `CCNc1nc(NCc2ccco2)c2cc(OC)c(OC)cc2n1` [AR-018, N^2-ethyl-N^4-(furan-2-ylmethyl)-6,7-dimethoxyquinazoline-2,4-diamine] the same measures were 1% and 0%.
In general, pEC50 refers to −log10 of the EC50, conventionally taken in molar units. `c1coc(CNc2nc(NC3CC3)nc3ccccc23)c1` [AR-006, N^2-cyclopropyl-N^4-(furan-2-ylmethyl)quinazoline-2,4-diamine]: the activation at 10 µM was determined as 170% and the activation at 50 µM was 289%. Besides, the pEC50 (dose-response, FIG. 5) was 5.16.
For the compound `CN(C)c1nc(N2CCCC2)c2ccccc2n1` [AR-022, N,N-dimethyl-4-(pyrrolidin-1-yl)quinazolin-2-amine], the activation at 10 µM was -0.5% and the activation at 50 µM worked out at 0%.
For `CC(Nc1nc(NCc2ccco2)nc2ccccc12)c1ccccc1` (stereo not drawn) [AR-012, N^2-(furan-2-ylmethyl)-N^4-(1-phenylethyl)quinazoline-2,4-diamine] the same measures were -0.6% and 6.4%.
The like results for `COc1cc2nc(NC3CC3)nc(N3CCCC3)c2cc1OC` [AR-017, N-cyclopropyl-6,7-dimethoxy-4-(pyrrolidin-1-yl)quinazolin-2-amine] were, in that order, 0.6% and 0.9%.
For `CC(Nc1nc(NCc2ccc3c(c2)OCO3)nc2ccccc12)c1ccccc1` (stereo not drawn) [AR-013, N^2-(benzo[d][1,3]dioxol-5-ylmethyl)-N^4-(1-phenylethyl)quinazoline-2,4-diamine] the same measures were 0.8% and -0.4%.
Consider `CN(C)c1nc(NCc2ccco2)nc2ccccc12` [AR-002, N^2-(furan-2-ylmethyl)-N^4,N^4-dimethylquinazoline-2,4-diamine], for which the activation at 10 µM is -1.5% and the activation at 50 µM amounted to 1.3%.
The like results for `Oc1cc2nc(NC3CC3)nc(N3CCCC3)c2cc1O` [AR-025, 2-(Cyclopropylamino)-4-(pyrrolidin-1-yl)quinazoline-6,7-diol] were, in that order, -1.6% and 0.4%.
For `CCNc1nc(NCc2ccco2)c2ccccc2n1` [AR-001, N^2-ethyl-N^4-(furan-2-ylmethyl)quinazoline-2,4-diamine] the same measures were 23.7% and 246%.
For `CCNc1nc(NCc2ccco2)c2cc(O)c(O)cc2n1` [AR-028, 2-(Ethylamino)-4-((furan-2-ylmethyl)amino)quinazoline-6,7-diol] the same measures were -0.3% and -1.1%.
For `COc1cc2nc(NCc3ccco3)nc(N(C)C)c2cc1OC` [AR-019, N^2-(furan-2-ylmethyl)-6,7-dimethoxy-N^4,N^4-dimethylquinazoline-2,4-diamine], the activation at 10 µM is -0.3% and the activation at 50 µM worked out at 0%.
